Assay results taken from patent US11142520B2, “LDHA activity inhibitors” (ARCTIC PHARMA AS, priority 2017, dated 2021).

How the values were obtained:
LDHA = LDHA (Homo sapiens (Human), UniProt P00338); test: Coupled diaphorase assay, LDHA; format: biochemical; details: lactate to pyruvate direction, 4-7 nM LDHA
Source text: (§1) The inhibitory properties of the compounds were investigated using a coupled enzyme assay that links the lactate dehydrogenase (LDH) reaction to the production of fluorescent resorutin by diaphorase.
(§2) Human lactate dehydrogenases (LDH) catalyze the reversible interconversion between pyruvate and lactate. LDH is capable of catalyzing both the forward (pyruvate to lactate) and the reverse (lactate to pyruvate) reaction, using either NADH or NAD^+ as a cofactor. The reaction proceeds in either direction dependent on various factors, such as substrate availability, the presence of necessary cofactors, temperature and pH. Different isoforms (LDH A, B, and C) of the enzyme favor different reaction directions—LDHA prefers the conversion from pyruvate to lactate, whereas LDHB preferentially oxidizes lactate to pyruvate.
The coupled assay relies on the oxidation of NAD^+ to NADH throughout the conversion of lactate to pyruvate by LDH (isoforms A, B and C). The produced NADH serves as cofactor in the diaphorase reaction, which reduces non-fluorescent resazurin to fluorescent resorufin. Therefore, the assay indirectly monitors the rate of pyruvate production. Although the consumption of NADH can be directly monitored due to the intrinsic fluorescence of the molecule (excitation: 340 nm, emission: 460 nm) there are problems linked to the direct readout method. […] Shifting the assay to longer wavelengths by coupling the LDH reaction to the conversion of resazurin to fluorescent resorufin by diaphorase reduces this compound interference. The assay direction was thus chosen to provide a robust and reliable assay. […]
Compounds were tested in duplicates using 2-fold, 3-fold or 4-fold serial dilutions including 11 individual concentrations, starting from 5000 μM to 30 μM. […] The controls allowed for the calculation of the percentage inhibition for each data point. […] Enzyme solution leading to final concentrations of 4-7 nM LDHA or 6 nM LDHB, as well as 0.2 U/ml diaphorase in the reaction well was dispensed into 384-well plates (Greiner bio-one) using a CyBi®-SELMA robotic pipettor. Compound dilutions and the enzyme were incubated for at least 20 min at room temperature. […] The reaction was quenched by the addition of a stop solution (final concentrations: 20 mM EDTA, 400 mM NaCl, 40 mM pyruvate). Fluorescence was read out after 5 min of incubation at an excitation wavelength of 560 nm and an emission wavelength of 590 nm on a Perkin Elmer Victor X plate reader. […]
(§3) Fluorescence data was normalized to DMSO and inhibition controls resulting in percentage inhibition for every compound concentration. Dose response curves were fitted in KaleidaGraph (www.synergy.com) or Dotmatics software package (www.dotmatics.com) using a standard 4-parameter fit (Levenberg-Marquardt fitting procedure), resulting in IC50 values for the test compounds.

LDHB = LDHB (Homo sapiens (Human), UniProt P07195); test: Coupled diaphorase assay, LDHB; format: biochemical; details: lactate to pyruvate direction, 6 nM LDHB
LDHB, sequence (P07195 whole entry): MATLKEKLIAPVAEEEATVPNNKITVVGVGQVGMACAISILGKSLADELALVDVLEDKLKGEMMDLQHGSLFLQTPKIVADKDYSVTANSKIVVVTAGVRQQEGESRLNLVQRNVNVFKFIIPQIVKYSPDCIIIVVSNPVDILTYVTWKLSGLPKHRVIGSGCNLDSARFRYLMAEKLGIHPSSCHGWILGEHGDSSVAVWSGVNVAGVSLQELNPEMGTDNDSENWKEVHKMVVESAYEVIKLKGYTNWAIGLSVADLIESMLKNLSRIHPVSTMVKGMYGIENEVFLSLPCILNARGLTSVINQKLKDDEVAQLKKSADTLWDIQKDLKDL
Source text: as §1, §2
The coupled assay relies on the oxidation of NAD^+ to NADH throughout the conversion of lactate to pyruvate by LDH (isoforms A, B and C). The produced NADH serves as cofactor in the diaphorase reaction, which reduces non-fluorescent resazurin to fluorescent resorufin. Therefore, the assay indirectly monitors the rate of pyruvate production. Although the consumption of NADH can be directly monitored due to the intrinsic fluorescence of the molecule (excitation: 340 nm, emission: 460 nm) there are problems linked to the direct readout method. […] Shifting the assay to longer wavelengths by coupling the LDH reaction to the conversion of resazurin to fluorescent resorufin by diaphorase reduces this compound interference. The assay direction was thus chosen to provide a robust and reliable assay.
Applying the LDHA reaction in the preferred direction for the conversion of pyruvate to lactate under oxidation of NADH to NAD^+ would necessitate running the LDHA reaction to about 80% completion and adding the diaphorase assay reagents afterwards in order to avoid enzyme competition for NADH.
The controls allowed for the calculation of the percentage inhibition for each data point. […] Enzyme solution leading to final concentrations of 4-7 nM LDHA or 6 nM LDHB, as well as 0.2 U/ml diaphorase in the reaction well was dispensed into 384-well plates (Greiner bio-one) using a CyBi®-SELMA robotic pipettor. Compound dilutions and the enzyme were incubated for at least 20 min at room temperature. […] The reaction was quenched by the addition of a stop solution (final concentrations: 20 mM EDTA, 400 mM NaCl, 40 mM pyruvate). Fluorescence was read out after 5 min of incubation at an excitation wavelength of 560 nm and an emission wavelength of 590 nm on a Perkin Elmer Victor X plate reader. […]
as §3

IC50 (LDHA)	IC50 (LDHB)	SMILES
10 to 50 µM	–	COCCOC(=O)OC1=C(Sc2cc(Cl)ccc2Cl)C(=O)NC(c2ccc(N3CCOCC3)cc2)(c2ccsc2)C1 (racemic) [Example 17, 5-((2,5-dichlorophenyl)thio)-2-(4-morpholinophenyl)-6-oxo-2-(thiophen-3-yl)-1,2,3,6-tetrahydropyridin-4-yl (2-methoxyethyl) carbonate]
0.5 to 10 µM	–	O=C1CC(c2ccc(N3CCOCC3)cc2)(c2ccsc2)NC(=O)C1Sc1cc(Cl)ccc1Cl (single isomer, unassigned) [Example 10 Enantiomer 1]
10 to 50 µM	–	O=C1CC(c2ccc(N3CCOCC3)cc2)(c2ccsc2)NC(=O)C1Sc1cc(Cl)ccc1Cl (single isomer, unassigned) [Example 10 Enantiomer 2]
10 to 50 µM	–	COCCOC(=O)OC1=C(Sc2cc(Cl)ccc2Cl)C(=O)NC(c2ccc(N3CCOCC3)cc2)(c2ccsc2)C1 (single isomer, unassigned) [Example 17 Enantiomer 1]
0.5 to 10 µM	–	COCCOC(=O)OC1=C(Sc2cc(Cl)ccc2Cl)C(=O)NC(c2ccc(N3CCOCC3)cc2)(c2ccsc2)C1 (single isomer, unassigned) [Example 17 Enantiomer 2]
10 to 50 µM	> 100 µM	O=C1CC(c2ccsc2)(c2cccc(OCC3CCCC3)n2)NC(=O)C1Sc1ccc(Cl)cc1Cl (centres unmarked) [Example 1, 6-[6-(cyclopentylmethoxy)pyridin-2-yl]-3-[(2,4-dichlorophenyl)sulfanyl]-6-(thiophen-3-yl)piperidine-2,4-dione]
10 to 50 µM	> 100 µM	O=C1CC(c2ccsc2)(c2cccc(Br)n2)NC(=O)C1Sc1ccc(F)cc1Cl (centres unmarked) [Example 2, 6-(6-bromopyridin-2-yl)-3-[(2-chloro-4-fluorophenyl)sulfanyl]-6-(thiophen-3-yl)piperidine-2,4-dione]
10 to 50 µM	> 100 µM	CCOc1cccc(C2(c3ccsc3)CC(=O)C(Sc3ccc(F)cc3Cl)C(=O)N2)n1 (centres unmarked) [Example 4, 3-((2-chloro-4-fluorophenyl)thio)-6-(6-ethoxypyridin-2-yl)-6-(thiophen-3-yl)piperidine-2,4-dione]
> 100 µM	> 100 µM	O=C1CC(c2ccsc2)(c2cccc(Br)n2)NC(=O)C1Sc1cccc(Cl)c1Cl (centres unmarked) [Example 6, 6-(6-bromopyridin-2-yl)-3-[(2,3-dichlorophenyl)sulfanyl]-6-(thiophen-3-yl)piperidine-2,4-dione]
10 to 50 µM	> 100 µM	O=C1CC(c2ccsc2)(c2cccc(OCC3CCCC3)n2)NC(=O)C1Sc1cccc(Cl)c1Cl (centres unmarked) [Example 7, 6-[6-(cyclopentylmethoxy)pyridin-2-yl]-3-[(2,3-dichlorophenyl)sulfanyl]-6-(thiophen-3-yl)piperidine-2,4-dione]
0.1 to 0.5 µM	0.1 to 0.5 µM	O=C1CC(c2ccc(N3CCOCC3)cc2)(c2ccsc2)NC(=O)C1Sc1ccc(F)cc1Cl (centres unmarked) [Example 8, 3-((2-chloro-4-fluorophenyl)thio)-6-(4-morpholinophenyl)-6-(thiophen-3-yl)piperidine-2,4-dione]
0.5 to 10 µM	> 100 µM	O=C1CC(c2ccc(N3CCOCC3)cc2)(c2ccsc2)NC(=O)C1Sc1cccc(Cl)c1Cl (centres unmarked) [Example 9, 3-((2,3-dichlorophenyl)thio)-6-(4-morpholinophenyl)-6-(thiophen-3-yl)piperidine-2,4-dione]
> 100 µM	> 100 µM	CCOC(=O)OC1=C(Sc2ccc(F)cc2Cl)C(=O)NC(c2ccsc2)(c2cccc(OCC3CCCC3)n2)C1 (centres unmarked) [Example 11, 5-[(2-chloro-4-fluorophenyl)sulfanyl]-2-[6-(cyclopentylmethoxy)pyridin-2-yl]-6-oxo-2-(thiophen-3-yl)-1,2,3,6-tetrahydropyridin-4-yl ethyl carbonate]
> 100 µM	> 100 µM	COC(=O)OC1=C(Sc2cccc(Cl)c2Cl)C(=O)NC(c2ccsc2)(c2cccc(OCC3CCCC3)n2)C1 (centres unmarked) [Example 12, 6′-(cyclopentylmethoxy)-5-((2,3-dichlorophenyl)thio)-6-oxo-2-(thiophen-3-yl)-1,2,3,6-tetrahydro-[2,2′-bipyridin]-4-yl methyl carbonate]
> 100 µM	–	CCCCCCCCCCOC(=O)OC1=C(Sc2cc(Cl)ccc2Cl)C(=O)NC(c2ccsc2)(c2cccc(OCC3CCCC3)n2)C1 (centres unmarked) [Example 16, 6′-(cyclopentylmethoxy)-5-((2,5-dichlorophenyl)thio)-6-oxo-2-(thiophen-3-yl)-1,2,3,6-tetrahydro-[2,2′-bipyridin]-4-yl decyl carbonate]
0.5 to 10 µM	–	O=C1CC(c2cncnc2)(c2ccsc2)OC(=O)C1Sc1ccccc1Cl (centres unmarked) [Example 19, 3-((2-chlorophenyl)thio)-6-(pyrimidin-5-yl)-6-(thiophen-3-yl)dihydro-2H-pyran-2,4(3H)-dione]
10 to 50 µM	–	COC(=O)OC1=C(Sc2ccccc2Cl)C(=O)OC(c2ccsc2)(c2ccc(Br)cn2)C1 (centres unmarked) [Example 21, 2-(5-bromopyridin-2-yl)-5-((2-chlorophenyl)thio)-6-oxo-2-(thiophen-3-yl)-3,6-dihydro-2H-pyran-4-yl methyl carbonate]
50 to 100 µM	–	CC(C)COC(=O)OC1=C(Sc2cc(Cl)ccc2Cl)C(=O)NC(c2ccc(N3CCOCC3)cc2)(c2ccsc2)C1 (centres unmarked) [Example 26, 5-((2,5-dichlorophenyl)thio)-2-(4-morpholinophenyl)-6-oxo-2-(thiophen-3-yl)-1,2,3,6-tetrahydropyridin-4-yl isobutyl carbonate]
10 to 50 µM	–	CC(=O)OC1=C(Sc2cc(Cl)ccc2Cl)C(=O)NC(c2ccc(N3CCOCC3)cc2)(c2ccsc2)C1 (centres unmarked) [Example 27, 5-((2,5-dichlorophenyl)thio)-2-(4-morpholinophenyl)-6-oxo-2-(thiophen-3-yl)-1,2,3,6-tetrahydropyridin-4-yl acetate]
10 to 50 µM	–	CC(C)(C)C(=O)OC1=C(Sc2cc(Cl)ccc2Cl)C(=O)NC(c2ccc(N3CCOCC3)cc2)(c2ccsc2)C1 (centres unmarked) [Example 28, 5-((2,5-dichlorophenyl)thio)-2-(4-morpholinophenyl)-6-oxo-2-(thiophen-3-yl)-1,2,3,6-tetrahydropyridin-4-yl pivalate]
0.5 to 10 µM	–	O=C1NC(c2ccc(N3CCOCC3)cc2)(c2ccsc2)CC(OC(=O)c2ccncc2)=C1Sc1cc(Cl)ccc1Cl (centres unmarked) [Example 31, 5-((2,5-dichlorophenyl)thio)-2-(4-morpholinophenyl)-6-oxo-2-(thiophen-3-yl)-1,2,3,6-tetrahydropyridin-4-yl isonicotinate]
> 100 µM	–	COCCOC(=O)OC1=C(Sc2cc(Cl)ccc2Cl)C(=O)NC(c2ccsc2)(c2cccc(OCC3CCCC3)n2)C1 (centres unmarked) [Example 34, 6′-(cyclopentylmethoxy)-5-((2,5-dichlorophenyl)thio)-6-oxo-2-(thiophen-3-yl)-1,2,3,6-tetrahydro-[2,2′-bipyridin]-4-yl (2-methoxyethyl) carbonate]
10 to 50 µM	–	COCCOC(=O)OC1=C(Sc2ccccc2Cl)C(=O)OC(c2cnc(N3CCOCC3)nc2)(c2ccsc2)C1 (centres unmarked) [Example 35, 5-((2-chlorophenyl)thio)-2-(2-morpholinopyrimidin-5-yl)-6-oxo-2-(thiophen-3-yl)-3,6-dihydro-2H-pyran-4-yl (2-methoxyethyl) carbonate]
